Experimental data reported in US20100234381A1, “BIOMARKERS AND METHODS FOR DETERMINING SENSITIVITY TO VASCULAR ENDOTHELIAL GROWTH FACTOR RECEPTOR-2 MODULATORS” (Bristol-Myers Squibb Company, priority 2007, published 2010).
Entries after “also recorded” stand apart in the source; their conditions may differ.

Legend:
[1] = test system: FGF2-stimulated cancer cell lines; test: FGF2-stimulated tumor cell proliferation, panel of cancer cell lines; type: cell-based; settings: for Brivanib-resistant (>3 μM) cell lines, number / Brivanib-sensitive (≦3 μM) cell lines, number: following FGF2 stimulation
Method: […], GEO, L2987, 786-0, A549, A498, Du145, PANC-1, ACHN, HT1197, CALU6, SKOV3, 769-[…], HCT166 and UMUC3. […] Gene expression profiling was performed on RNA samples from tumor cell lines using AFFYMETRIX® GeneChip System.

VEGF gene expression = test: VEGF gene expression, AFFYMETRIX human arrays
[2] = test system: advanced or metastatic solid tumors; test: Phase 1 clinical study CA 182-002: tumor response and PFS by FGF2 status; type: in vivo, human; settings: for patients with progressive disease / patients with a partial response or stable disease: after 56 days of treatment; for patients with a partial response or stable disease: WHO criteria; for median increase in tumor size from baseline: after two cycles of treatment (approximately 56 days)
From the text: All patients gave informed consent for the clinical trial and for this study, which was approved by the appropriate institutional review boards. Inclusion criteria include ECOG 0-1 (S. Javerzat et al., Trends Mol. Med., 8:483 (2002)), adequate bone marrow and hepatic function, and having tumor tissue block or 20 to 30 unstained slides of the initial biopsy available. Exclusion criteria included prior exposure to vascular endothelial growth factor (VEGF) inhibitors, presence of cardiovascular disease, thromboembolism, or bleeding in the last 6 months. All patients enrolled in the clinical trial had previously failed primary and secondary chemotherapy courses. […] Patients' response was measured by quantifying tumor size by contrast enhanced tomography (CT).
Tumor response was assesses using the modified WHO tumor response criteria. Lesions were evaluated by computed tomography (CT). Lesions were bidimensional and had at least one diameter of >2 cm on standard CT and >1 cm on spiral CT. For bidimensional measurements, the second diameter was perpendicular to the longest diameter. The area of lesion was calculated by multiplying the longest diameter by the greatest perpendicular diameter.
Tumor blocks were sectioned at 4 μm. Slides were de-paraffined and rehydrated in the LEICA® ST5020 Multistainer. Antigen retrieval was carried out by heating slides with Citra Plus Antigen retrieval solution (BioGenex, Cat # HK080-9K) in a BIOGENEX® EZ-Retriever Microwave at 95° C. for 15 minutes. The slides were then cooled at room temp for 5 minutes, and rinsed with distilled water for three times (˜1 minute each). Slides were immunostained in the i6000 Automated Staining System (BioGennex) using the following conditions: blocking with peroxide block (DAKO, Cat# K4007) for 5 minutes, followed by 5% goat serum for 30 mins, primary antibodies rabbit anti-fibroblast growth factor-2 (FGF-2) (Abcam Cat# #16828) 1:25 or rabbit immunoglobulin G (Rabbit IgG, LabVision, Cat# NC-100-P) 5 μg/ml were added and incubated for 1 hour, followed by Peroxidase Anti-Rabbit IgG (H+L) secondary antibody (Vector, Cat# PI-1000) at 1:200 dilution for 45 minutes. Chromogen substrate DAB (DAKO, Cat# K4007) was added and incubated for 5 minutes. Slides were counterstained with hematoxyline (DAKO cat#53309) for 1 minute. The stained slides were dehydrated and coverslipped in the LEICA® ST5020 Multistainer and assessed by a board-certified pathologist, without knowledge of patients' medical status.
To compare response rates between the FGF-2(+) and FGF-2(−) groups, a Fisher's exact test was used. To test for differences of percent changes from baseline in tumor between FGF-2(+) and FGF-2(−) groups, a non-parametric Wilcoxon rank-sum test was used (since the assumptions on the marginal distributions for the t-statistic were slightly violated for percent change from baseline, and small sample sizes could increase the test's vulnerability to assumption violations). The same method was applied to test for the difference in percent change from baseline of CIV at Day 8 and Day 26 between the two groups. In addition, a Rank-based ANCOVA was used to investigate the effect of the FGF-2 status on the post-baseline tumor volume, adjusted for the baseline tumor volume. All analyses were performed using R (Y. Shing et al., Science., 223:1296 (1984)).

collagen IV (CIV) = test: Plasma collagen IV (CIV) ELISA in patients; type: in vivo, human; settings: for reduction in median CIV levels: regardless of FGF-2 status
Method: Plasma collagen IV (CIV) was measured using an enzyme-linked immunosorbent assay (ELISA) kit obtained from Biotrin International, Ltd. (Dublin, Ireland). […] Per the manufacturer's kit insert and instructions, the kit standards, QCs and EDTA plasma patient samples were diluted with conjugate (anti-collagen IV mouse Fab′ conjugated to horseradish peroxidase, containing 30 mg/l Proclin 300 as a preservative). Diluted samples were incubated for 30 minutes in wells coated with a second anti-collagen IV antibody, and then washed 3 times with kit wash buffer (phosphate buffer with Tween 20 and proclin 300 as a preservative. Ready to use TMB substrate was added and incubated for 30 minutes. The reaction was stopped by the addition of 1M H2SO4. The absorbance at 450 nm using 630 nm as a reference was measured using a SPECTRAMAX® plate reader (Molecular Devices, Sunnyvale, Calif.). Softmax Pro 4.8 software was used to generate a 4-parameter logistic (4-PL) curve fit using the CIV kit standards.

Substance: [(1R),2S]-2-Aminopropionic acid 2-[4-(4-fluoro-2-methyl-1H-indol-5-yloxy)-5-methylpyrrolo[2,1-f][1,2,4]triazin-6-yloxy]-1-methylethyl ester [brivanib]
- Brivanib-resistant (>3 μM) cell lines, number ([1]; Bladder cell lines): 2
- Brivanib-sensitive (≦3 μM) cell lines, number ([1]; Bladder cell lines): 1
- Brivanib-sensitive (≦3 μM) cell lines, number ([1]; Colon cell lines): 0
- Brivanib-sensitive (≦3 μM) cell lines, number ([1]; NSCLC cell lines): 2
- Brivanib-resistant (>3 μM) cell lines, number ([1]; Prostate cell lines): 1
- Brivanib-resistant (>3 μM) cell lines, number ([1]; Total of cell lines): 10
- inhibition of FGF2-induced tumor cell proliferation ([1]; panel of cancer cell lines, in vitro): inhibited FGF2-induced tumor cell proliferation in 16 cancer cell lines; also recorded: inhibits FGF2-induced tumor cell line growth with much lower IC50 values than sunitinib
- modulation of VEGF gene expression levels (VEGF gene expression): modulated VEGF gene expression levels
- tumor shrinkage from baseline, FGF2 staining vs negative staining tumors ([2]; Example 1 analysis of CA 182-002, not statistically significant): tend to have more shrinkage than the negative staining tumors
- survival, FGF2 positive vs negative tumors (Kaplan-Meier) ([2]; Example 1 analysis of CA 182-002, p value 0.475): tended to have a survival advantage
- Mean change in tumor size (%) (~8 wks) High (≧600 mg) (n = 26) ([2]; FGF2+ patients (n = 24)): 0.9%
- Mean change in tumor size (%) (~8 wks) Low (<600 mg) (n = 17) ([2]; FGF2+ patients (n = 24)): 28%
- Median PFS (days) High (≧600 mg) (n = 26) ([2]; FGF2+ patients (n = 24)): 107 days
- Median PFS (days) Low (<600 mg) (n = 17) ([2]; FGF2+ patients (n = 24)): 71 days
- PD, number of patients ([2]; FGF2+ patients (n = 24)): 9
- PR, number of patients ([2]; FGF2+ patients (n = 24)): 2
- Mean change in tumor size (%) (~8 wks) High (≧600 mg) (n = 26) ([2]; FGF2− patients (n = 19)): 24%
- Mean change in tumor size (%) (~8 wks) Low (<600 mg) (n = 17) ([2]; FGF2− patients (n = 19)): 71%
- Median PFS (days) High (≧600 mg) (n = 26) ([2]; FGF2− patients (n = 19)): 56 days
- Median PFS (days) Low (<600 mg) (n = 17) ([2]; FGF2− patients (n = 19)): 54 days
- PD, number of patients ([2]; FGF2− patients (n = 19)): 14
- PR, number of patients ([2]; FGF2− patients (n = 19)): 0
- reduction of tumor growth, FGF-2(+) compared with FGF-2(−) patients ([2]; patients with FGF-2(+) tumors): three-fold
- patients with progressive disease ([2]; patients with FGF-2(+) tumors): 9 out of 24
- patients with a partial response or stable disease ([2]; patients with FGF-2(+) tumors): 62.5%
- median increase in tumor size from baseline ([2]; patients with FGF-2(+) tumors): 1%
- patients with progressive disease ([2]; patients with FGF-2(−) tumors): 14 out of 19
- median increase in tumor size from baseline ([2]; patients with FGF-2(−) tumors): 36%
- patients with a partial response or stable disease ([2]; patients with FGF-2− tumors): 26.3%
- reduction in median CIV levels (collagen IV (CIV); 320 mg, after 8 days): 2.6%
- reduction in median CIV levels (collagen IV (CIV); 320 mg, after 26 days): 2.3%
- reduction in median CIV levels (collagen IV (CIV); 800 mg, after 8 days): 24%
- reduction in median CIV levels (collagen IV (CIV); 800 mg, after 26 days): 31%
- COL IV change from baseline (%) (Day 26) (n = 42) (collagen IV (CIV); FGF2+ patients (n = 24)): −30%
- COL IV change from baseline (%) (Day 26) (n = 42) (collagen IV (CIV); FGF2− patients (n = 19)): −16%
- median decrease of CIV levels from baseline (collagen IV (CIV); patients with FGF2(−) tumors, after 8 days): 4.9%
- median decrease of CIV levels from baseline (collagen IV (CIV); patients with FGF-2(+) tumors, after 8 days): 16.1%
- median reduction from baseline in CIV levels (collagen IV (CIV); patients with FGF-2(+) tumors, after 26 days): 30.7%
- median reduction from baseline in CIV levels (collagen IV (CIV); patients with FGF-2(−) tumors, after 26 days): 4.3%
